Activity calls are given as the source filed them.
Assays:
[1] = biological target: T1, Protein skinhead-1 (Caenorhabditis elegans, UniProt P34707); type: functional
T1 sequence (P34707 whole entry): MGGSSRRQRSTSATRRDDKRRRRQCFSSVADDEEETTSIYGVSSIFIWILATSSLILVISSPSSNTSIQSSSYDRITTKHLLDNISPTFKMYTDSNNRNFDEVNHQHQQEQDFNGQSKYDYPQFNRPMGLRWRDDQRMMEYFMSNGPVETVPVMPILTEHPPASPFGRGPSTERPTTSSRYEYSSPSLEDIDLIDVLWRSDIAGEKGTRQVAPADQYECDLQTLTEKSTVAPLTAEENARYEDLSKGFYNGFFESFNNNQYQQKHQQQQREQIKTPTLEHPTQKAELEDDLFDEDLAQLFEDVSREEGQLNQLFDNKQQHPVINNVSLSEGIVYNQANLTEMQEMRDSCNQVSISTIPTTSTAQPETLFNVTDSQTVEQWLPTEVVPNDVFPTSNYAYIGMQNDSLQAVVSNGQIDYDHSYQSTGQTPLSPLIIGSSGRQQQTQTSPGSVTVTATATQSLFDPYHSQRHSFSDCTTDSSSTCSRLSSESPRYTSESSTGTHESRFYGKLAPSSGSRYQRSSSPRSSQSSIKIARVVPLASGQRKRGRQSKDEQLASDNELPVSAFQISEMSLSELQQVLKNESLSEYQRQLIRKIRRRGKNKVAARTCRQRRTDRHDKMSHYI

[2] = biological target: Fatty acid synthase (Homo sapiens, UniProt P49327); test: inhibition of human FAS-TE enzyme activity – biochemical, kinetic fluorescence intensity, dose response (AID 624326); type: functional;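 also: rate of fluorescence rise from hydrolysis of a fluorogenic O-methyl fluorescein ester substrate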
Chain of Fatty acid synthase (P49327 whole entry, the tested form may be a part): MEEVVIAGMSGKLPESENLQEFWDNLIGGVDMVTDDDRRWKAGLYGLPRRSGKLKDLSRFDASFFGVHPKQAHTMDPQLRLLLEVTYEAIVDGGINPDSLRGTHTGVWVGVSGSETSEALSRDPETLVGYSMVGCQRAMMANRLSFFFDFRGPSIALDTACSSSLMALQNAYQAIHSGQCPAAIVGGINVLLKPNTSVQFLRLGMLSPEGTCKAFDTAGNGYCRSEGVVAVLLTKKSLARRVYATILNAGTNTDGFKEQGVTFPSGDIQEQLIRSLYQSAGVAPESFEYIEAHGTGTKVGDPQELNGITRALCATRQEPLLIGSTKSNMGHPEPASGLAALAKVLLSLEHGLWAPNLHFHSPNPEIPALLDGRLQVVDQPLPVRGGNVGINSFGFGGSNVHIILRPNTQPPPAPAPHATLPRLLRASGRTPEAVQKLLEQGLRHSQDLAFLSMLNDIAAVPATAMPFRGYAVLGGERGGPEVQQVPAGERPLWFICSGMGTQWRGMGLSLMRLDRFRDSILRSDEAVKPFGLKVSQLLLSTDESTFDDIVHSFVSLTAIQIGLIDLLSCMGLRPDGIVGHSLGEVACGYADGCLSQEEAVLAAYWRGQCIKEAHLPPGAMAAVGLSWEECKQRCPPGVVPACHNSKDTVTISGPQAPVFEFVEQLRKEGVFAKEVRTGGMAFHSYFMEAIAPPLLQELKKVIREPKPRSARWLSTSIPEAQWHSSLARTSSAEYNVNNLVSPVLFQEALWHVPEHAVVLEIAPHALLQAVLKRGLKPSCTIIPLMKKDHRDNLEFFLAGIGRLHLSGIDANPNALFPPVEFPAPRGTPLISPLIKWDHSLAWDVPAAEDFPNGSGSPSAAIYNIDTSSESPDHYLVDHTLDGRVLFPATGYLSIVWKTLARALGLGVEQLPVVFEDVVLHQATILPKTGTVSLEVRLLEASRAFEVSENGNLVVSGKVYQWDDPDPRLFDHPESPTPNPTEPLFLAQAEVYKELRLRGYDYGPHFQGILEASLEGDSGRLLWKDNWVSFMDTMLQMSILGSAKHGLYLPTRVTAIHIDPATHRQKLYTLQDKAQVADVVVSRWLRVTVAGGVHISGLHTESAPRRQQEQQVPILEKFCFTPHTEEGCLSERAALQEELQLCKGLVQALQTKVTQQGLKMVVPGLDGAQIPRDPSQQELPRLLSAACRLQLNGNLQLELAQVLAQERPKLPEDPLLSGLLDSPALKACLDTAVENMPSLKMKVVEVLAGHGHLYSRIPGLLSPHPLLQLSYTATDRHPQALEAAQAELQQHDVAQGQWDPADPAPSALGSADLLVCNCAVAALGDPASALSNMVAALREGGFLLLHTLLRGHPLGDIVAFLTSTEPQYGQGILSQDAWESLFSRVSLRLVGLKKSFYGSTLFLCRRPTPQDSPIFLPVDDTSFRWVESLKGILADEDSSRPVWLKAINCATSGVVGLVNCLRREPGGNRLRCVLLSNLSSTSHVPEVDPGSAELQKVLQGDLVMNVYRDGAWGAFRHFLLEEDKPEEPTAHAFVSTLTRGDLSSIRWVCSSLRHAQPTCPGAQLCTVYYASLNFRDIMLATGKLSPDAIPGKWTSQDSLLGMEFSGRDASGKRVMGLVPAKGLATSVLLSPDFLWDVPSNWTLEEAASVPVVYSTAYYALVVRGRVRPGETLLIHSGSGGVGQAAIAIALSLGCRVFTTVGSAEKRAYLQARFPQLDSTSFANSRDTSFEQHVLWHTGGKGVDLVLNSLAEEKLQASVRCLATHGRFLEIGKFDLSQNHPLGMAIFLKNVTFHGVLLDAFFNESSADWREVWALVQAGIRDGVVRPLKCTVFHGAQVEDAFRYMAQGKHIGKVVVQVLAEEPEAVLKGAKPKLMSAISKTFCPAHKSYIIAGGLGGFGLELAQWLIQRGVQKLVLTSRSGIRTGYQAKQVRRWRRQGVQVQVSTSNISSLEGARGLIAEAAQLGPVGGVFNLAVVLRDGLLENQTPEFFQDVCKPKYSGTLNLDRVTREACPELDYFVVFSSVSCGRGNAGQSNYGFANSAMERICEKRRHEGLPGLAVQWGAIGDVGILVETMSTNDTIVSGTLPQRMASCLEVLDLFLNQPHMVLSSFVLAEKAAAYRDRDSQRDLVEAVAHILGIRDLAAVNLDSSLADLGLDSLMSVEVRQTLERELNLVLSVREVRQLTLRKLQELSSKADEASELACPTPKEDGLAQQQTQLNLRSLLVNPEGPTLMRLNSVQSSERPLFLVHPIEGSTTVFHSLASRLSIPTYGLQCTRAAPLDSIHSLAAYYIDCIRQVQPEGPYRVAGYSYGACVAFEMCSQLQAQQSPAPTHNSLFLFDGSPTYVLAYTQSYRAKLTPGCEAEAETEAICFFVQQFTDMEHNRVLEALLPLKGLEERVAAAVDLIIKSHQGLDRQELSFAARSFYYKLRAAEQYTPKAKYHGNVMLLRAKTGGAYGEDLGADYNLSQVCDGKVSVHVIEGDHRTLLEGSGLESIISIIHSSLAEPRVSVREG

[3] = blockers of HIV-1 envelope-mediated cell-cell fusion – cherry-pick, dose response (AID 652057); type: functional, cell-based
[4] = viability loss in CEM21 cells – cell-based, CellTiter-Glo luminescence, cherry-picked, cytotoxicity control for viral fusion inhibitor project, dose response (AID 652042); type: functional;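 also: potency for signal decrease meaning cytotoxicity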
[5] = blockers of HIV-1 ZM109 envelope-driven cell-cell fusion – HeLa effector, CEM target cells, luciferase, cherry-pick, dose response (AID 652058); type: functional, cell-based;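 also: luciferase signal from HIV-1 Env mediated cell-cell fusion of effector and target cells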
[6] = HIV-1 AD8 envelope cell-cell fusion blockers – cherry-pick, dose response (AID 652062); type: functional, cell-based;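 also: luciferase signal from cell-cell fusion driven by HIV-1 clade B AD8 Env; potency is for inhibitors of fusion seen as a drop in luminescence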
[7] = A549 cell cytotoxicity, dose response, cytotoxicity control, plate reader, cherry-pick, antagonist series (AID 743412); type: functional, cell-based
[8] = HGIII-sPLA2 enzyme inhibition potency – biochemical, QFRET, IC50, dose response (AID 743457);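 also: green fluorescence rise as the enzyme cleaves BODIPY PC-A2 in liposomes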
[9] = cells; type: functional, cell-based
[10] = Trypanosoma cruzi growth suppression in host cells – NIH3T3 host cells, beta-gal luminescence, confirmation (AID 2044); type: functional, cell-based;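 also: intracellular parasites grown in NIH/3T3 mouse fibroblasts as host cells; luminescent beta-galactosidase reporter signal from transgenic T. cruzi replicating inside host cells; inhibitors lower the luminescence signal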
[11] = cells; type: functional, cell-based; remark: listed apart in the source
[12] = NIH3T3 cell viability loss – ATP luminescence, mouse fibroblasts, counter-screen, dose response (AID 2010); type: functional, cell-based;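 also: cells exposed to compound for about 90 hours before reading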
[13] = system: INS1; test: INS-1E survival protection against cytokine death – cell-based, luminescence, retest, dose response (AID 449756); type: functional; conditions: Rattus norvegicus;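 also: cell death triggered by IL-1 beta plus TNF-alpha plus IFN-gamma mixture; protective hits raise ATP signal compared with cytokine alone wells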
[14] = biological target: Cytochrome P450 2C9 (Homo sapiens, UniProt P11712)
Chain of Cytochrome P450 2C9 (P11712 whole entry): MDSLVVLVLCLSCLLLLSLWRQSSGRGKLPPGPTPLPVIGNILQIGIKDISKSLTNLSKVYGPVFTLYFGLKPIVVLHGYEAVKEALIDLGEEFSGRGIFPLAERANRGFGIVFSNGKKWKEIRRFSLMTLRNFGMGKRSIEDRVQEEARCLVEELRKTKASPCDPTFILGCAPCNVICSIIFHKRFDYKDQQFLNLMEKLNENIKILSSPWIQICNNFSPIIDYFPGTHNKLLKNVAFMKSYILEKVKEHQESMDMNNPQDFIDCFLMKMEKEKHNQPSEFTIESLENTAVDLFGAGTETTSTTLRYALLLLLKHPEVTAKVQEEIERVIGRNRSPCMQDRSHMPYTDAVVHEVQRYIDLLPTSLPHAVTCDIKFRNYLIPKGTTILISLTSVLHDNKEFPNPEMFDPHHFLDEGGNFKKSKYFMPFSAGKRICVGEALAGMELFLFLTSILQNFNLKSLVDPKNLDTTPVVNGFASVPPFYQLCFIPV

[15] = biological target: T2, Polyadenylate-binding protein 1 (Homo sapiens, UniProt P11940); test: MLLE binding blockers, Cy5 peptide tracer – biochemical, fluorescence polarization, Cy5-PAM2 peptide, secondary, miRNA deadenylation inhibitor project, dose response (AID 602260); type: functional; conditions: read-out: IC50_Mean
T2 sequence (P11940 whole entry, the tested form may be a part): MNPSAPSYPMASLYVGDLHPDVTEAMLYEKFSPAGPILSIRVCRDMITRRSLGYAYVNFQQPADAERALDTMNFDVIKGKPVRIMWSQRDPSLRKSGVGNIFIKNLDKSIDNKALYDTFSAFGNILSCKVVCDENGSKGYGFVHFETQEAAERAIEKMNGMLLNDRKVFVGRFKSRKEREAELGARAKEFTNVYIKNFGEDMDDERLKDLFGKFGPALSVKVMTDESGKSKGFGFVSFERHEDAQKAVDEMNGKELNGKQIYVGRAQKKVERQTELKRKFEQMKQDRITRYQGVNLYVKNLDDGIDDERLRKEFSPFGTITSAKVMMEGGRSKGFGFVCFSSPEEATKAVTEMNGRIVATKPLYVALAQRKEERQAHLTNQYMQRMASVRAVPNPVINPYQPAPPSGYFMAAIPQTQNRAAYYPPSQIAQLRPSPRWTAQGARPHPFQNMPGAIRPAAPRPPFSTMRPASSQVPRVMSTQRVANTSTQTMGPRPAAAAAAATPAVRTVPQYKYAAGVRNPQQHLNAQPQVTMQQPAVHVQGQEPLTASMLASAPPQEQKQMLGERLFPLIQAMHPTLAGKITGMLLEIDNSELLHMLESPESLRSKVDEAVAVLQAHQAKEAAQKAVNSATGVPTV

[16] = biological target: T2, Polyadenylate-binding protein 1; test: MLLE domain peptide-binding blockers, IC50 – biochemical, fluorescence polarization, FITC-PAM2 peptide, dose response (AID 602259); type: functional; conditions: read-out: IC50_Mean
[17] = biological target: T3, Corticotropin-releasing factor receptor 2/Corticotropin-releasing factor-binding protein (Homo sapiens, UniProt P24387+Q13324); test: activators of CRF receptor 2 with binding protein – uHTS hits, confirmation (AID 602473); type: functional; conditions: read-out: EC50_Mean
T3 sequence (Q13324 whole entry): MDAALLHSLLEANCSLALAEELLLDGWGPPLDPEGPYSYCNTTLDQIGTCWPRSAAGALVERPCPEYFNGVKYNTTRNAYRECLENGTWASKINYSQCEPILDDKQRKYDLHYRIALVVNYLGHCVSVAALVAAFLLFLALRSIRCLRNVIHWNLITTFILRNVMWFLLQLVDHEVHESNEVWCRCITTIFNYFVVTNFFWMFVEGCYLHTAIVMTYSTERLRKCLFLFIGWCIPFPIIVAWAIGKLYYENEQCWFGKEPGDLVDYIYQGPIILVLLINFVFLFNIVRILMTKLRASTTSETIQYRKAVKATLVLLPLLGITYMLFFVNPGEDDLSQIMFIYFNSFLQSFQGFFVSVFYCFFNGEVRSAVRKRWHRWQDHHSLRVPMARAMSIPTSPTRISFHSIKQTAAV
T3 sequence (P24387 whole entry): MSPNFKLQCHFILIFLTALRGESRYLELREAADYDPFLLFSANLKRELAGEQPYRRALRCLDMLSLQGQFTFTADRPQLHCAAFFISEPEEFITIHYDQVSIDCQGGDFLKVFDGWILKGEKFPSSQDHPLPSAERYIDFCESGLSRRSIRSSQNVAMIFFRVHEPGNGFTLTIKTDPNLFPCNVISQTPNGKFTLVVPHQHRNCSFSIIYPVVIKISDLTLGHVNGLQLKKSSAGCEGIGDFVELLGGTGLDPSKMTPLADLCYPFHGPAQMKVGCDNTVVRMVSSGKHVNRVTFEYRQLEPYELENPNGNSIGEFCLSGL

[18] = biological target: T4, DNA repair protein RAD52 homolog (Homo sapiens, UniProt P43351); type: functional, biochemical
T4 sequence (P43351 whole entry): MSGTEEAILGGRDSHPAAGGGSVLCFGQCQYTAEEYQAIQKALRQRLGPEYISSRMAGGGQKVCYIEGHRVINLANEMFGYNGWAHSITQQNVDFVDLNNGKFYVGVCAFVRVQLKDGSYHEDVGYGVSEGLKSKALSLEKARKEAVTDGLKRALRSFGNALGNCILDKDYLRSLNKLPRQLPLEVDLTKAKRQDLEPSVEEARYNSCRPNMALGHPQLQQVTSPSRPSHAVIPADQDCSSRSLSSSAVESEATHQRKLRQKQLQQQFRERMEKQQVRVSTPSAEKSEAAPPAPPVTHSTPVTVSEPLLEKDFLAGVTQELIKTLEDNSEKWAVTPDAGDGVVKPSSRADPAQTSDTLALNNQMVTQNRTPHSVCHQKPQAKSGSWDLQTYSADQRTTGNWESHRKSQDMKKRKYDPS

[19] = biological target: T5, Cytochrome P450 1A2 (Homo sapiens, UniProt P05177);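 also: PubChem cytochrome P450 panel assay, CYP1A2 panel member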
T5 sequence (P05177 whole entry): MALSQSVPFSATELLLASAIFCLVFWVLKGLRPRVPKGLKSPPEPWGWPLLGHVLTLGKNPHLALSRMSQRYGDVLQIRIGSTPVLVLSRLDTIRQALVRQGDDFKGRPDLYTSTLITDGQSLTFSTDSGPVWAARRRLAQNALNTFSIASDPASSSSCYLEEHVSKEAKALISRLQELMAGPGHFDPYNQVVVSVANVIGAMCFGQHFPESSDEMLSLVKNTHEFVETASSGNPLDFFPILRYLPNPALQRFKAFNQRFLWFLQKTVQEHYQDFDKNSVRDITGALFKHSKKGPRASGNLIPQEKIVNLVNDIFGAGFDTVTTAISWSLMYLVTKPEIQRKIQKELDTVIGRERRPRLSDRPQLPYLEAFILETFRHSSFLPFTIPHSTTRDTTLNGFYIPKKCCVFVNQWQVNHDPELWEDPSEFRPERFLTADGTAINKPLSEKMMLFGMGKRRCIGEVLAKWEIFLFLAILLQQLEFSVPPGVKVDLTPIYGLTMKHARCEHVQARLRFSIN

Question: For `CCn1nccc1C(=O)Nc1ccc(Cl)c(Cl)c1`, which IC50 [1] is on record?
Answer: 43.4 µM (active)

Question: With `O=C(C[C@H]1C[C@H](C(=O)N2CCOCC2)[C@@]2(CCC3CCCC3)c3[nH]c4cc(-c5ccco5)ccc4c3CCN2C1=O)NCCc1ccccn1` as the compound, how does the IC50 [2] read?
Answer: 7.01 µM (active)

Question: Which results are given for `C[C@H]1CN([C@@H](C)CO)C(=O)Cc2cc(NC(=O)Nc3cccc4ccccc34)ccc2O[C@H]1CN(C)S(=O)(=O)c1ccccc1`?
Answer: AC50 [3]: < 0.26 µM (active); AC50 [4]: 33.8 µM (active); AC50 [5]: < 0.26 µM (active); AC50 [6]: 1.07 µM (active)

Question: Which AC50 [7] does the source give for `COc1ccc2[nH]c3c(c2c1)CCN1C(=O)N([C@@H](C)C(=O)NCc2ccc(C)cc2)C(=O)[C@]31C` here?
Answer: > 52 µM (inactive)

Question: For `COc1ccc(CCC(=O)NN=C(S)Nc2cccc(C(C)=O)c2)cc1`, which IC50 [8] is on record?
Answer: > 122 µM (inactive)

Question: For `Sc1nnc(-c2ccc(Cl)cc2Cl)n1Cc1ccccc1`, which IC50 [8] is on record?
Answer: > 122 µM (inactive)

Question: With `COc1ccc(/C(C)=N/NC(=O)c2cccc(S(=O)(=O)N3CCCC3)c2)c(O)c1` as the compound, how does the EC50 [9] read?
Answer: 11.6 µM (active)

Question: What about the EC50 [10] of the same compound?
Answer: 1.05 µM (active)

Question: And the EC50 [11]?
Answer: > 350 µM (not active)

Question: What about the EC50 [12] of the same compound?
Answer: 3.07 µM (active)

Question: And the AC50 [13]?
Answer: 0.631 µM (active)

Question: What about the AC50 [4] of the same compound?
Answer: 3.55 µM (active)

Question: What about the AC50 [6] of the same compound?
Answer: 17.4 µM (active)

Question: With `O=C(Nc1ccccc1)c1cc(-c2ccccc2Cl)no1` as the compound, how does the AC50 [14] read?
Answer: inconclusive

Question: For `O=C(NC(=S)NNC(=O)c1ccccc1O)c1ccc([N+](=O)[O-])cc1`, which IC50 [15] is on record?
Answer: > 66 µM (inactive)

Question: What about the IC50 [16] of the same compound?
Answer: > 66 µM (inactive)

Question: What about the EC50 [17] of the same compound?
Answer: > 53 µM (inactive)

Question: And the IC50 [8]?
Answer: > 122 µM (inactive)

Question: For `OC1CC2CCC(C1)N2CCCN1c2ccccc2Sc2ccc(Cl)cc21` (stereo not given), which AC50 [18] is on record?
Answer: 12.9 µM (active)

Question: With `CC(C)CCN1CC(C(=O)N2CCN(c3ccc(F)cc3)CC2)CC1=O` (stereo not given) as the compound, how does the AC50 [19] read?
Answer: 0.251 µM (inconclusive)

Question: What about the AC50 [14] of the same compound?
Answer: inconclusive

Question: With `O=C(CCS(=O)(=O)c1cccc2nsnc12)N1CCN(c2ccccc2F)CC1` as the compound, how does the IC50 [1] read?
Answer: > 100 µM (inactive)

Reference: ChEMBL document CHEMBL1201862, “PubChem BioAssay data set” (2004)
